Results on 10 compounds are retold here after ChEMBL document CHEMBL5291721, “A preclinical secondary pharmacology resource illuminates target-adverse drug reaction associations of marketed drugs” (Nat Commun, 2023).

Where a SMILES comes first, the peptide text is derived from it. A value given as a limit tells only on which side of the number the result lay.

The target of assay [1] is T1, Adenosine receptor A3 (Homo sapiens, UniProt P0DMS8).
T1 sequence (P0DMS8 whole entry): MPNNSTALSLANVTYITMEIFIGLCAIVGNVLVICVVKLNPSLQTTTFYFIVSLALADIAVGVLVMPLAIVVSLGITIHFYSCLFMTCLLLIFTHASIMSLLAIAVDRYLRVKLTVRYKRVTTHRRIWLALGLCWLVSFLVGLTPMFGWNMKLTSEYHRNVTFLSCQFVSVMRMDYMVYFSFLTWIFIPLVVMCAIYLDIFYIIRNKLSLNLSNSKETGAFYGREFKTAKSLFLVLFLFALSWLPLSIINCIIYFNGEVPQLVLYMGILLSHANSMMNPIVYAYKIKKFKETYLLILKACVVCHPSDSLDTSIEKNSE

The target of assay [2] is Beta-2 adrenergic receptor (Homo sapiens, UniProt P07550).
Assay [3] concerns the target T2, B2 bradykinin receptor (Homo sapiens, UniProt P30411).
T2 sequence (P30411 whole entry): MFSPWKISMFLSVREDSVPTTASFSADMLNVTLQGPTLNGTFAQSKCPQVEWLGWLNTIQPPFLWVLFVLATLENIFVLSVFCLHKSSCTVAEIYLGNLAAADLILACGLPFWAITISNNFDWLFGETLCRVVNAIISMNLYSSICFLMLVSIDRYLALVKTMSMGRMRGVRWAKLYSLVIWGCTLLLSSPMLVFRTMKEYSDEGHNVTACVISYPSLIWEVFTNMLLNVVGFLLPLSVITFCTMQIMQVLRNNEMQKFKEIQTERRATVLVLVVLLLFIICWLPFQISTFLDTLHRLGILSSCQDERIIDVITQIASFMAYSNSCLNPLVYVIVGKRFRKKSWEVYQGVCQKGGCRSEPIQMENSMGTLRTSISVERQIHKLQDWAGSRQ

The target in assay [4] is T3, Muscarinic acetylcholine receptor M1 (Homo sapiens, UniProt P11229).
T3 sequence (P11229 whole entry): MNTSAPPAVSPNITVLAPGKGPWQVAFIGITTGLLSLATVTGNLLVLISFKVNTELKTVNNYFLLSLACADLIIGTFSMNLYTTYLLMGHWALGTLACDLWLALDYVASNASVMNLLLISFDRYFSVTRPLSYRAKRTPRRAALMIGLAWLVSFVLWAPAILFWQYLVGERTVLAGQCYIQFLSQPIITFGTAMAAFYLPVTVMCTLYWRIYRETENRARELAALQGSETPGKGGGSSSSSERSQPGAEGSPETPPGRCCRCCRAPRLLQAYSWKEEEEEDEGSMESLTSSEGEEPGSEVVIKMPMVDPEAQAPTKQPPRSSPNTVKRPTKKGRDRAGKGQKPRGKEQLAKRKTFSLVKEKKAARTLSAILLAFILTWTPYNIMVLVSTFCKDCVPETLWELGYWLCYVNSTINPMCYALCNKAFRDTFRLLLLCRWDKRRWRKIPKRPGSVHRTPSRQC
It counts as functional.

Assay [5] addresses T4, Muscarinic acetylcholine receptor M2 (Homo sapiens, UniProt P08172).
T4 sequence (P08172 whole entry): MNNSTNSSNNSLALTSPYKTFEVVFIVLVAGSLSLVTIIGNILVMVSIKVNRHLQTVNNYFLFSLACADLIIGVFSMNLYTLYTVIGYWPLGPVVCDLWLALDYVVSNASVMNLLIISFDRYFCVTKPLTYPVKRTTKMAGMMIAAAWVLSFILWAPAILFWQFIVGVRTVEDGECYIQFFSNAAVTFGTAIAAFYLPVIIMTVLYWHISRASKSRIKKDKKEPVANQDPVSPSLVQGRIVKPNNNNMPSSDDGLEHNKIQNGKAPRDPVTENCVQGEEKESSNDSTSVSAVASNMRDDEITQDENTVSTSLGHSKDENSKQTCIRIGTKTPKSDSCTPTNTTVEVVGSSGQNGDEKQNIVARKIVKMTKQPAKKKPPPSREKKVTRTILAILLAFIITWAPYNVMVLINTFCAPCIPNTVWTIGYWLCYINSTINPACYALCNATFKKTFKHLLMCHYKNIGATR
It counts as functional, cell-based.

The target in assay [6] is Muscarinic acetylcholine receptor M3 (Homo sapiens, UniProt P20309).
The target in assay [7] is Neuronal acetylcholine receptor subunit alpha-4 (Homo sapiens, UniProt P43681).
In assay [8] the target is T5, Endothelin-1 receptor (Homo sapiens, UniProt P25101).
T5 sequence (P25101 whole entry): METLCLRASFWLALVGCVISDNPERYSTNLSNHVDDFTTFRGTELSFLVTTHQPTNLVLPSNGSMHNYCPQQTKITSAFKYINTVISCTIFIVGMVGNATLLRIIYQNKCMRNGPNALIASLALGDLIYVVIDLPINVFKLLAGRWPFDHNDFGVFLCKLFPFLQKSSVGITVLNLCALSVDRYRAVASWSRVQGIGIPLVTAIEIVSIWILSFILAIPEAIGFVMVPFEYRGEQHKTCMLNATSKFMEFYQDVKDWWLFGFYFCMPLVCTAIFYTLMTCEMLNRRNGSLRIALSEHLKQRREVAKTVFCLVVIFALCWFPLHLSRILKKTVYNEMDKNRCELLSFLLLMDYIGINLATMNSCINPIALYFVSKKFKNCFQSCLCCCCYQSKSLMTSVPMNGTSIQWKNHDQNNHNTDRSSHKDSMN

Assay [9] concerns the target Growth hormone secretagogue receptor type 1 (Homo sapiens, UniProt Q92847).
For assay [10], the target named is 5-hydroxytryptamine receptor 2A (Homo sapiens, UniProt P28223). It counts as functional, cell-based.
The target of assay [11] is T6, 5-hydroxytryptamine receptor 2B (Homo sapiens, UniProt P41595). It counts as functional, cell-based.
For assay [12], the target named is T6, 5-hydroxytryptamine receptor 2B. It counts as functional, cell-based. This is another data set of the same source.
Assay [13] concerns the target cGMP-inhibited 3',5'-cyclic phosphodiesterase 3A (Homo sapiens, UniProt Q14432). It counts as functional.
Note: assay procedure not described here.

Chain of Neuronal acetylcholine receptor subunit alpha-4 (P43681 whole entry): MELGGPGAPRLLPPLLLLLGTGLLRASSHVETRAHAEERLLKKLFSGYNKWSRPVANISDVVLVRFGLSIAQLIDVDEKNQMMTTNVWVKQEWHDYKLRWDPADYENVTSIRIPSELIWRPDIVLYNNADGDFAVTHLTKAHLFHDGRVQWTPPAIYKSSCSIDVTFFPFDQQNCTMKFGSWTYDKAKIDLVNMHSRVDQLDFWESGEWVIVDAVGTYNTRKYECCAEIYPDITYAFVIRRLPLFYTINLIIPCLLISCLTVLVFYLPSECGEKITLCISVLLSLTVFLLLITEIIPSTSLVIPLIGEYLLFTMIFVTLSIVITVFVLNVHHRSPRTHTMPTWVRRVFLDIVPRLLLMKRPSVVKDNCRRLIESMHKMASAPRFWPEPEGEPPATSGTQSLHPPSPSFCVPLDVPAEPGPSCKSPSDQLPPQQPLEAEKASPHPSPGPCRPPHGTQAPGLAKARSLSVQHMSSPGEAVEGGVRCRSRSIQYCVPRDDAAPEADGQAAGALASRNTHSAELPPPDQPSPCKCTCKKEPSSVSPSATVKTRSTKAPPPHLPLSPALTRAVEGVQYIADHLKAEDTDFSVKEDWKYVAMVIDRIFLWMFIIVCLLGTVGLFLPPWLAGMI
Chain of Muscarinic acetylcholine receptor M3 (P20309 whole entry): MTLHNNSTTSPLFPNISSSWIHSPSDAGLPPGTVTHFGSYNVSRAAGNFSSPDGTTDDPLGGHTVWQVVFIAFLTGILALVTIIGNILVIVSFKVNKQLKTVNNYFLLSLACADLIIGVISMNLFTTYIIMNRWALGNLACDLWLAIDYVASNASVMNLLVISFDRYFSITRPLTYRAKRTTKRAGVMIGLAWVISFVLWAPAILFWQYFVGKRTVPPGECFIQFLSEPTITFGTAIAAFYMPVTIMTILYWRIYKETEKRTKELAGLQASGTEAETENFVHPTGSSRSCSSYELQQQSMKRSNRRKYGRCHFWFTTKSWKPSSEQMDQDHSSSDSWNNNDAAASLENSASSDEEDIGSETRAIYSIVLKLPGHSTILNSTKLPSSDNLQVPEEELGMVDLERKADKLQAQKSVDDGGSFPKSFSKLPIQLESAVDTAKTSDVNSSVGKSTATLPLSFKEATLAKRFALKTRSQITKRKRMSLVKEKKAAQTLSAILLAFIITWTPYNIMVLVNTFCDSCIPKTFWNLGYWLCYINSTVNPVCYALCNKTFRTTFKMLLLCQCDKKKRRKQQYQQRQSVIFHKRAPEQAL
T6 sequence (P41595 whole entry): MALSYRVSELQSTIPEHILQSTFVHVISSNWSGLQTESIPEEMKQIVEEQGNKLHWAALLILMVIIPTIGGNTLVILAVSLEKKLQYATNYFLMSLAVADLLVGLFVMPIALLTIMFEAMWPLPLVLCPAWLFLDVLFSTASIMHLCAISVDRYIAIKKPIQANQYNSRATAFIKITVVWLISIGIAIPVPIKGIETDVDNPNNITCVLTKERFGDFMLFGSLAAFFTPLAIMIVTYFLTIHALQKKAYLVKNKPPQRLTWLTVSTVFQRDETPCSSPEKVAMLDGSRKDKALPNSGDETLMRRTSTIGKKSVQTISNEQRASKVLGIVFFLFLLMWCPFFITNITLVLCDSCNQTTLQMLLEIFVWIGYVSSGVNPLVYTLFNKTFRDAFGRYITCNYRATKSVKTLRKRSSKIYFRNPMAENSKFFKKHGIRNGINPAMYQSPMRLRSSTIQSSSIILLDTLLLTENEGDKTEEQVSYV
Chain of 5-hydroxytryptamine receptor 2A (P28223 whole entry): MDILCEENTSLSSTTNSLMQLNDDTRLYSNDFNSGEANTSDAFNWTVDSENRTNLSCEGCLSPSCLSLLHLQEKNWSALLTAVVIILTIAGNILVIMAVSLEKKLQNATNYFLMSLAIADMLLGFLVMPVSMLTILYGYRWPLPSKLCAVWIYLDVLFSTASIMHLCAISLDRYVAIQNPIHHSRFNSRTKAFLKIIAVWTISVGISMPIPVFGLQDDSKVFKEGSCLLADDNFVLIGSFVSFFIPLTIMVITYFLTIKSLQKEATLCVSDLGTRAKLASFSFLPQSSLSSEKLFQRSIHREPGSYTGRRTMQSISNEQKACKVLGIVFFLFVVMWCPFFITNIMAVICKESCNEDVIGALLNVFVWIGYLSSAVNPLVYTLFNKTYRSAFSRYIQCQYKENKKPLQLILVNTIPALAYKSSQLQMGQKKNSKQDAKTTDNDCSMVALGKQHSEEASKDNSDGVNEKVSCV
Chain of Growth hormone secretagogue receptor type 1 (Q92847 whole entry): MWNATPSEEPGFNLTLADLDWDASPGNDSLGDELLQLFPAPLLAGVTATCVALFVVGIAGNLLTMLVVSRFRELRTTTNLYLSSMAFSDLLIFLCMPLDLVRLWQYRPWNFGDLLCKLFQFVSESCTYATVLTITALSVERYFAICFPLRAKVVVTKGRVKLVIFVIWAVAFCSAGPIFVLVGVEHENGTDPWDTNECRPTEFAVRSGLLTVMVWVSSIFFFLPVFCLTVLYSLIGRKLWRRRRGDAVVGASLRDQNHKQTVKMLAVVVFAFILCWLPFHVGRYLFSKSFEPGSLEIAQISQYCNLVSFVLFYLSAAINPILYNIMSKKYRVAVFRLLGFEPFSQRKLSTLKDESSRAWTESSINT
Chain of Beta-2 adrenergic receptor (P07550 whole entry): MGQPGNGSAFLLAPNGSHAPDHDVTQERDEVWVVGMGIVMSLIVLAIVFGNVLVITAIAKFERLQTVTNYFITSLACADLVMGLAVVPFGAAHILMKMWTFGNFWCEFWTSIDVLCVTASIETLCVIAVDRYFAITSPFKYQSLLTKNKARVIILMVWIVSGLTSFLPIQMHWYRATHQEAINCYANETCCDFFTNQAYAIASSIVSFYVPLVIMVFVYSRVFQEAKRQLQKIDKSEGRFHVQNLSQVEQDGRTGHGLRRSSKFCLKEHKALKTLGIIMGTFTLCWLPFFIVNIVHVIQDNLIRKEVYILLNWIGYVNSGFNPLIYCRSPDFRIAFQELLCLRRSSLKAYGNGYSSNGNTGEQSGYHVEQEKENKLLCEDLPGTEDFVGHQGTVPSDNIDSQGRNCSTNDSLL
Chain of cGMP-inhibited 3',5'-cyclic phosphodiesterase 3A (Q14432 whole entry): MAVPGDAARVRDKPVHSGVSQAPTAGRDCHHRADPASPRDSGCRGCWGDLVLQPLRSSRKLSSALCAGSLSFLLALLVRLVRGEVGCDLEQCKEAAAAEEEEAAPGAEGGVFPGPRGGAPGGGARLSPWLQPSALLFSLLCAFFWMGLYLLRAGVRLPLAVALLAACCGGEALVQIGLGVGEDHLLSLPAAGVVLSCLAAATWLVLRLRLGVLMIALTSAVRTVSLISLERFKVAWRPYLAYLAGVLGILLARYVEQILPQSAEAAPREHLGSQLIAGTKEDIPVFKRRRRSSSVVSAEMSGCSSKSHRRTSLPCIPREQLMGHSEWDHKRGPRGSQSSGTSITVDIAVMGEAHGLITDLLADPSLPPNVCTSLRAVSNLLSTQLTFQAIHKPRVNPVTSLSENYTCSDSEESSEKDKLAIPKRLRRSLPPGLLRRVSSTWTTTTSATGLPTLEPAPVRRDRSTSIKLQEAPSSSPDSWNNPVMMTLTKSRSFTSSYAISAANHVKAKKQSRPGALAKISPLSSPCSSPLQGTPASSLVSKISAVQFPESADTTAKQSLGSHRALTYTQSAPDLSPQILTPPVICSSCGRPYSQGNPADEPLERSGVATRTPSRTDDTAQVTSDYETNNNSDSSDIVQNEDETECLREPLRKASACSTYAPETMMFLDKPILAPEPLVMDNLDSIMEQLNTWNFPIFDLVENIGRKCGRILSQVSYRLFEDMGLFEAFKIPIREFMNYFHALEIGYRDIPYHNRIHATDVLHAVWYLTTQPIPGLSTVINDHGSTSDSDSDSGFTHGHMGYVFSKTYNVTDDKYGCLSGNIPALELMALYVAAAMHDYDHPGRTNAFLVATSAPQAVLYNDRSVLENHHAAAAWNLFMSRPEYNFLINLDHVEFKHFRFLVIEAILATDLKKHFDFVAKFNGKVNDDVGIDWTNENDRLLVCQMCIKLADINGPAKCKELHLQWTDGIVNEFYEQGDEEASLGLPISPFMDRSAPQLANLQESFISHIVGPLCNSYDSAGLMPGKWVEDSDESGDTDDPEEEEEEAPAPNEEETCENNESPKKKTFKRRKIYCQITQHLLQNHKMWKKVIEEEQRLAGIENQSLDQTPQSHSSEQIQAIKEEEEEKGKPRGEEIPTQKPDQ

Usually AC50 stands for the concentration at which the activity in the assay is half-maximal. As for `O=C(O)c1ccc2nc(-c3cc(Cl)cc(Cl)c3)oc2c1`, the AC50 in assay [1], in assay [2], in [3], in assay [4], in assay [5] and in [6] was over 30 µM each time. Moreover, the AC50 in assay [7], in [8], in assay [9], in assay [10], in assay [11] and in assay [12] was over 30 µM each time. This compound had an AC50 in assay [13] of 24 µM.

As for `NS(=O)(=O)c1ccc(N2CCCCS2(=O)=O)cc1`, the AC50 in [1], in assay [2], in assay [3], in [4], in [5] and in [6] was over 30 µM each time. Also, the half-maximal activity concentration (AC50) in [7], in [8], in assay [9], in assay [10], in assay [11] and in [12] was over 30 µM in each case. In [13], the concentration at half-maximal activity (AC50) is over 30 µM.

On to `C[C@H](N)C(=O)N[C@@H](CCC(N)=O)C(=O)O` [ALANYL GLUTAMINE] (H-Ala-Gln-OH), for which the AC50 in assay [1], in assay [2], in assay [3], in [4], in assay [5] and in assay [6] was over 30 µM throughout. Further, the concentration at half-maximal activity (AC50) in assay [7], in [8], in assay [9], in [10], in [11] and in assay [12] was over 30 µM throughout. Moreover, the AC50 in assay [13] is over 30 µM.

`COc1cc(N)cn[n+]1-c1ccccc1` [AMEZINIUM METILSULFATE]: the AC50 in assay [1], in [2], in assay [3], in [4], in assay [5] and in assay [6] was over 30 µM throughout. The concentration at half-maximal activity (AC50) in assay [7] is over 10 µM; in [8], over 30 µM; in [9] it was over 30 µM; in assay [10] it was over 30 µM; in assay [11] it was over 30 µM; in [12] it was over 30 µM. Further, the half-maximal activity concentration (AC50) in assay [13] is over 30 µM.

As to `CCN(CC)CCCN(c1ccccc1)C1Cc2ccccc2C1` [APRINDINE], the AC50 in [1] was over 30 µM; in assay [2], over 10 µM; in [3], over 30 µM; in [4] it was 14.5 µM; in [5], over 30 µM; in assay [6], over 30 µM. In addition, the AC50 in [7] was over 30 µM; in [8] it was over 30 µM; in assay [9], 15 µM; in [10], over 30 µM; in assay [11] it was over 30 µM; in assay [12], over 30 µM. The compound also displayed an AC50 in assay [13] of over 30 µM.

For `CO/N=C(\C(=O)N[C@@H]1C(=O)N2C(C(=O)O)=C(CSc3nc(C)c(CC(=O)O)s3)CS[C@H]12)c1csc(N)n1` [CEFODIZIME], the AC50 in assay [1], in assay [2], in [3], in assay [4], in [5] and in assay [6] was over 30 µM in each case. Moreover, the AC50 in assay [7], in assay [8], in assay [9], in assay [10], in assay [11] and in assay [12] was over 30 µM each time. The compound further yielded an AC50 in [13] of over 30 µM.

On to `CO/N=C(\C(=O)N[C@@H]1C(=O)N2C(C(=O)[O-])=C(C[n+]3ccc(N)n3CCO)CS[C@H]12)c1csc(N)n1` [CEFOSELIS], for which the AC50 in assay [1], in assay [2], in [3], in assay [4], in assay [5] and in [6] was over 30 µM throughout. For the same compound, the concentration at half-maximal activity (AC50) in assay [7], in assay [8], in assay [9], in assay [10], in assay [11] and in assay [12] was over 30 µM throughout. For the same compound, the AC50 in assay [13] was over 30 µM.

As for `COc1ccc(C(Cl)=C(c2ccc(OC)cc2)c2ccc(OC)cc2)cc1` [CHLOROTRIANISENE], the concentration at half-maximal activity (AC50) in assay [1] was 28 µM; in assay [2], over 10 µM; in assay [3], over 30 µM; in assay [4], over 30 µM; in assay [5], over 30 µM; in assay [6], over 30 µM. Also, the AC50 in assay [7], in assay [8], in [9], in [10], in assay [11] and in assay [12] was over 30 µM in each case. Further, the AC50 in [13] was over 30 µM.

Turning to `Oc1cc(O)c2c(c1)O[C@H](c1ccc(O)c(O)c1)[C@@H](O)C2` [CIANIDANOL], the concentration at half-maximal activity (AC50) in assay [1] is 22.2 µM; in [2] it was over 10 µM; in assay [3] it was over 30 µM; in assay [4], over 10 µM; in assay [5], over 10 µM; in assay [6] it was over 30 µM. In addition, the concentration at half-maximal activity (AC50) was over 10 µM in assay [7]; over 30 µM in assay [8]; over 30 µM in assay [9]; over 30 µM in assay [10]; over 10 µM in assay [11]; over 10 µM in assay [12]. In addition, in assay [13], the AC50 is over 30 µM.

On to `CCCO[C@H]1[C@@H]([C@@H](COCc2ccc(Cl)cc2)OCc2ccc(Cl)cc2)OC(OCC)[C@@H]1O` (stereo not given in full) [CLOBENOSIDE], for which the half-maximal activity concentration (AC50) was 20 µM in assay [1]; over 30 µM in assay [2]; over 30 µM in assay [3]; over 30 µM in assay [4]; over 30 µM in assay [5]; over 30 µM in assay [6]. Further, the AC50 in assay [7], in [8], in assay [9], in assay [10], in assay [11] and in [12] was over 30 µM each time. The compound further had a half-maximal activity concentration (AC50) in assay [13] of over 30 µM.
